Test results reported in patent publication US20100298141A1, “SUBSTITUTED PYRIDINE N-OXIDE HERBICIDES” (E. I. DU PONT DE NEMOURS AND COMPANY, priority 2007, published 2010).

Columns and labels:
lambsquarters = assay: Test C pre-/postemergence test; type: in vivo, Chenopodium album; settings: for Plant response rating, Lambsquarters: 31 g ai/ha, scale 0 to 100 (0 no effect, 100 complete control)
How it was run: (§1)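 Seeds were planted and treated preemergence with test chemical in a non-phytotoxic solvent mixture containing surfactant. Postemergence applications of the same formulation went onto plants 2 to 18 cm tall (1- to 4-leaf stage). A dash marks no test result.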

crabgrass [1] = assay: Test C pre-/postemergence test; type: in vivo, Digitaria sanguinalis; settings: for Plant response rating, Crabgrass, Large: 31 g ai/ha, scale 0 to 100 (0 no effect, 100 complete control)
How it was run: as §1

Goosegrass = assay: Test C pre-/postemergence test; type: in vivo, Eleusin indica; settings: for Plant response rating, Goosegrass: 31 g ai/ha, scale 0 to 100 (0 no effect, 100 complete control)
How it was run: as §1

barnyardgrass [2] = assay: Test C flooded paddy test; type: in vivo, Echinochloa crus-galli; settings: Flood
How it was run: (§2)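 In-water treatment: compound dosed into 3 cm flood over soil, water level unchanged throughout. Controls run alongside; visual assessment at day 13–15.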

kochia = assay: Test C pre-/postemergence test; type: in vivo, Kochia scoparia
How it was run: as §1

bermudagrass = assay: Test C pre-/postemergence test; type: in vivo, Cynodon dactylon; settings: for Plant response rating, Bermudagrass: 31 g ai/ha
How it was run: as §1

cocklebur = assay: Test C pre-/postemergence test; type: in vivo, Xanthium strumarium; settings: for Plant response rating, Cocklebur: 31 g ai/ha, scale 0 to 100 (0 no effect, 100 complete control)
How it was run: as §1

morningglory = assay: Test A pre-/postemergence greenhouse test; type: in vivo, Ipomoea spp.; settings: for Plant response rating, Morningglory: 0 to 100 scale where 0 is no effect and 100 is complete control; for Morningglory plant response rating: 0 to 100 scale
How it was run: (§3)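 Pots of loam–sand soil sown with the test species are sprayed preemergence on the soil surface; emerged seedlings (1–2 leaves, 2–10 cm) are sprayed postemergence at the same time. The vehicle is a non-phytotoxic solvent mixture with surfactant. Injury is scored visually after ~10 d in greenhouse.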

umbrella sedge = assay: Test C flooded paddy test; type: in vivo, Cyperus difformis; settings: Flood
How it was run: as §2

Surinam grass = assay: Test C pre-/postemergence test; type: in vivo, Brachiaria decumbens; settings: for Plant response rating, Surinam Grass: 31 g ai/ha, scale 0 to 100 (0 no effect, 100 complete control)
How it was run: as §1

pigweed = assay: Test C pre-/postemergence test; type: in vivo, Amaranthus retroflexus; settings: for Plant response rating, Pigweed: 31 g ai/ha, scale 0 to 100 (0 no effect, 100 complete control)
How it was run: as §1

Italian ryegrass = assay: Test C pre-/postemergence test; type: in vivo, Lolium multiflorum; settings: for Plant response rating, Ryegrass, Italian: 31 g ai/ha, scale 0 to 100 (0 no effect, 100 complete control)
How it was run: as §1

soybean = assay: Test C pre-/postemergence test; type: in vivo, Glycine max; settings: for Plant response rating, Soybean: 31 g ai/ha, scale 0 to 100 (0 no effect, 100 complete control)
How it was run: as §1

[3] = test system: common (oilseed) sunflower; assay: Test C pre-/postemergence test; type: in vivo, Helianthus annuus; settings: for Plant response rating, Sunflower: 31 g ai/ha, scale 0 to 100 (0 no effect, 100 complete control)
How it was run: as §1

barnyardgrass [4] = assay: Test A pre-/postemergence greenhouse test; type: in vivo, Echinochloa crus-galli; settings: for Plant response rating, Barnyardgrass: 0 to 100 scale where 0 is no effect and 100 is complete control; for Barnyardgrass plant response rating: 0 to 100 scale
How it was run: as §3

giant foxtail = assay: Test A pre-/postemergence greenhouse test; type: in vivo, Setaria faberi; settings: for Plant response rating, Foxtail, Giant: 0 to 100 scale where 0 is no effect and 100 is complete control; for Foxtail, Giant plant response rating: 0 to 100 scale
How it was run: as §3

crabgrass [5] = assay: Test A pre-/postemergence greenhouse test; type: in vivo, Digitaria sanguinalis; settings: for Plant response rating, Crabgrass, Large: 0 to 100 scale where 0 is no effect and 100 is complete control; for Crabgrass, Large plant response rating: 0 to 100 scale
How it was run: as §3

[6] = 62 g ai/ha, Preemergence, scale 0 to 100
[7] = 125 g ai/ha, preemergence, scale 0 (no effect) to 100 (complete control)
[8] = preemergence, 250 g ai/ha, scale 0 (no effect) to 100 (complete control)
[9] = 62 g ai/ha, scale 0 to 100 (0 no effect, 100 complete control)
[10] = 250 g ai/ha, scale 0 to 100, 0 no effect, 100 complete control, 13 to 15 days
[11] = 62 g ai/ha, Preemergence, scale 0 to 100 (0 no effect, 100 complete control)
[12] = Preemergence, scale 0 to 100 (0 no effect, 100 complete control)
[13] = Postemergence, 500 g ai/ha, 0 is no effect, 100 is complete control
[14] = Preemergence, 125 g ai/ha, 0 no effect, 100 complete control
[15] = Preemergence, 500 g ai/ha, 0 no effect, 100 complete control
[16] = 31 g ai/ha, scale 0 to 100 (0 no effect, 100 complete control)
[17] = 62 g ai/ha, scale 0 to 100, 0 no effect, 100 complete control, 13 to 15 days
[18] = 125 g ai/ha, scale 0 to 100, 0 no effect, 100 complete control, 13 to 15 days
[19] = preemergence, 125 g ai/ha, scale 0 (no effect) to 100 (complete control)
[20] = Postemergence, 125 g ai/ha, 0 is no effect, 100 is complete control

C#CCOc1c(CS(=O)(=O)c2cccc[n+]2[O-])c(C(F)(F)F)nn1C [Compound 103]
Lambsquarters plant response rating (lambsquarters; [6]): 50
Lambsquarters plant response rating (lambsquarters; [7]): 50
Plant response rating, Lambsquarters (lambsquarters; Preemergence): 10
Lambsquarters plant response rating (lambsquarters; [8]): 95
Crabgrass, Large plant response rating (crabgrass [1]; [6]): 98
Crabgrass, Large plant response rating (crabgrass [1]; [7]): 100
Plant response rating, Crabgrass, Large (crabgrass [1]; Preemergence): 90
Crabgrass, Large plant response rating (crabgrass [1]; [8]): 100
Goosegrass plant response rating (Goosegrass; [6]): 100
Goosegrass plant response rating (Goosegrass; [7]): 100
Plant response rating, Goosegrass (Goosegrass; Preemergence): 50
Goosegrass plant response rating (Goosegrass; [8]): 100
Plant response rating, Barnyardgrass (barnyardgrass [2]; [9]): 0
Plant response rating, Barnyardgrass (barnyardgrass [2]; [10]): 0
Kochia plant response rating (kochia; [6]): 0
Kochia plant response rating (kochia; [7]): 100
Kochia plant response rating (kochia; [8]): 100
Bermudagrass plant response rating (bermudagrass; [11]): 100
Bermudagrass plant response rating (bermudagrass; [7]): 100
Plant response rating, Bermudagrass (bermudagrass; [12]): 40
Bermudagrass plant response rating (bermudagrass; [8]): 100
Cocklebur plant response rating (cocklebur; [6]): 0
Cocklebur plant response rating (cocklebur; [7]): 0
Plant response rating, Cocklebur (cocklebur; Preemergence): 0
Cocklebur plant response rating (cocklebur; [8]): 30
Plant response rating, Morningglory (morningglory; Postemergence, 125 g ai/ha): 20
Morningglory plant response rating (morningglory; [13]): 70
Morningglory plant response rating (morningglory; [14]): 0
Morningglory plant response rating (morningglory; [15]): 70
Plant response rating, Sedge, Umbrella (umbrella sedge; [9]): 0
Plant response rating, Sedge, Umbrella (umbrella sedge; [10]): 55
Surinam Grass plant response rating (Surinam grass; [6]): 80
Surinam Grass plant response rating (Surinam grass; [7]): 90
Plant response rating, Surinam Grass (Surinam grass; Preemergence): 0
Surinam Grass plant response rating (Surinam grass; [8]): 95
Pigweed plant response rating (pigweed; [6]): 100
Pigweed plant response rating (pigweed; [7]): 100
Plant response rating, Pigweed (pigweed; Preemergence): 60
Pigweed plant response rating (pigweed; [8]): 100
Ryegrass, Italian plant response rating (Italian ryegrass; [6]): 50
Ryegrass, Italian plant response rating (Italian ryegrass; [7]): 55
Plant response rating, Ryegrass, Italian (Italian ryegrass; Preemergence): 0
Ryegrass, Italian plant response rating (Italian ryegrass; [8]): 60
Soybean plant response rating (soybean; [6]): 0
Soybean plant response rating (soybean; [7]): 10
Plant response rating, Soybean (soybean; Preemergence): 0
Soybean plant response rating (soybean; [8]): 50
Sunflower plant response rating [3, 6]: 35
Sunflower plant response rating [3, 7]: 50
Plant response rating, Sunflower ([3]; Preemergence): 35
Sunflower plant response rating [3, 8]: 90
Plant response rating, Barnyardgrass (barnyardgrass [4]; Postemergence, 125 g ai/ha): 80
Barnyardgrass plant response rating (barnyardgrass [4]; [13]): 90
Barnyardgrass plant response rating (barnyardgrass [4]; [14]): 90
Barnyardgrass plant response rating (barnyardgrass [4]; [15]): 100
Plant response rating, Foxtail, Giant (giant foxtail; Postemergence, 125 g ai/ha): 80
Foxtail, Giant plant response rating (giant foxtail; [13]): 90
Foxtail, Giant plant response rating (giant foxtail; [14]): 80
Foxtail, Giant plant response rating (giant foxtail; [15]): 100
Plant response rating, Crabgrass, Large (crabgrass [5]; Postemergence, 125 g ai/ha): 70
Crabgrass, Large plant response rating (crabgrass [5]; [13]): 90
Crabgrass, Large plant response rating (crabgrass [5]; [14]): 70
Crabgrass, Large plant response rating (crabgrass [5]; [15]): 100

Cc1cc[n+]([O-])c(S(=O)(=O)Cc2c(C(F)(F)F)nn(C)c2OCC(F)(F)F)c1 [Compound 31]
Lambsquarters plant response rating (lambsquarters; [6]): 95
Plant response rating, Lambsquarters (lambsquarters; Preemergence): 80
Crabgrass, Large plant response rating (crabgrass [1]; [6]): 100
Plant response rating, Crabgrass, Large (crabgrass [1]; Preemergence): 100
Plant response rating (0 to 100), Crabgrass, Large (crabgrass [1]; Preemergence, 250 g ai/ha): 100
Goosegrass plant response rating (Goosegrass; [6]): 100
Plant response rating, Goosegrass (Goosegrass; Preemergence): 100
Plant response rating (0 to 100), Goosegrass (Goosegrass; Preemergence, 250 g ai/ha): 100
Plant response rating, Barnyardgrass (barnyardgrass [2]; [16]): 0
Plant response rating, Barnyardgrass (barnyardgrass [2]; [17]): 0
Plant response rating, Barnyardgrass (barnyardgrass [2]; [18]): 30
Plant response rating, Barnyardgrass (barnyardgrass [2]; [10]): 75
Kochia plant response rating (kochia; [6]): 100
Plant response rating, Kochia (kochia; Preemergence, 31 g ai/ha, scale 0 to 100 (0 no effect, 100 complete control)): 100
Bermudagrass plant response rating (bermudagrass; [11]): 100
Plant response rating, Bermudagrass (bermudagrass; [12]): 100
Plant response rating (0 to 100), Bermudagrass (bermudagrass; Preemergence, 250 g ai/ha): 100
Bermudagrass plant response rating (bermudagrass; [19]): 100
Cocklebur plant response rating (cocklebur; [6]): 0
Plant response rating, Cocklebur (cocklebur; Preemergence): 0
Plant response rating (0 to 100), Cocklebur (cocklebur; Preemergence, 250 g ai/ha): 50
Cocklebur plant response rating (cocklebur; [19]): 40
Morningglory plant response rating (morningglory; [20]): 60
Morningglory plant response rating (morningglory; [13]): 80
Morningglory plant response rating (morningglory; [14]): 90
Plant response rating, Morningglory (morningglory; Preemergence, 500 g ai/ha): 100
Plant response rating, Sedge, Umbrella (umbrella sedge; [16]): 65
Plant response rating, Sedge, Umbrella (umbrella sedge; [17]): 85
Plant response rating, Sedge, Umbrella (umbrella sedge; [18]): 100
Plant response rating, Sedge, Umbrella (umbrella sedge; [10]): 100
Surinam Grass plant response rating (Surinam grass; [6]): 100
Plant response rating, Surinam Grass (Surinam grass; Preemergence): 85
Pigweed plant response rating (pigweed; [6]): 100
Plant response rating, Pigweed (pigweed; Preemergence): 100
Ryegrass, Italian plant response rating (Italian ryegrass; [6]): 60
Plant response rating, Ryegrass, Italian (Italian ryegrass; Preemergence): 40
Soybean plant response rating (soybean; [6]): 15
Plant response rating, Soybean (soybean; Preemergence): 10
Sunflower plant response rating [3, 6]: 20
Plant response rating, Sunflower ([3]; Preemergence): 20
Barnyardgrass plant response rating (barnyardgrass [4]; [20]): 70
Barnyardgrass plant response rating (barnyardgrass [4]; [13]): 90
Barnyardgrass plant response rating (barnyardgrass [4]; [14]): 100
Plant response rating, Barnyardgrass (barnyardgrass [4]; Preemergence, 500 g ai/ha): 100
Foxtail, Giant plant response rating (giant foxtail; [20]): 80
Foxtail, Giant plant response rating (giant foxtail; [13]): 90
Foxtail, Giant plant response rating (giant foxtail; [14]): 100
Plant response rating, Foxtail, Giant (giant foxtail; Preemergence, 500 g ai/ha): 100
Crabgrass, Large plant response rating (crabgrass [5]; [20]): 70
Crabgrass, Large plant response rating (crabgrass [5]; [13]): 80
Crabgrass, Large plant response rating (crabgrass [5]; [14]): 90
Plant response rating, Crabgrass, Large (crabgrass [5]; Preemergence, 500 g ai/ha): 100
